In patent publication US8389523B2, “Substituted quinoxaline and an agrochemical composition thereof” (Kumiai Chemical Industry Co., Ltd., priority 2007, dated 2013):

Tests used:
Type in all cases: in vivo
Design in all cases: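 grade 0 to 5 of growth suppression where 5 is 90% or more and 0 below 10%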
[1] = tested on: Monochoria vaginalis (Burm. f.) Presl var. plantaginea (Roxb.) Solms-Laub.; test: Herbicidal effects in paddy field soil treatment (Test Example 1); conditions: paddy field soil treatment; 1000 g of the active ingredient per hectare; wettable powder added dropwise on water surface; 21st day after treatment
In short: (§1)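 Flooded-paddy soil treatment under greenhouse conditions: a diluted wettable powder at 1000 g a.i./ha went onto the water surface one day post-sowing, with 3 cm standing water, and weed control was graded on a scoring scale 21 days after treatment.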

[2] = tested on: Echinochloa oryzicola Vasing; test: as above; conditions: paddy field soil treatment; 1000 g of the active ingredient per hectare; wettable powder added dropwise on water surface; 21st day after treatment
In short: as §1

[3] = tested on: Scirpus juncoides Roxb. var. ohwianus. T. Koyama; test: as above; conditions: paddy field soil treatment; 1000 g of the active ingredient per hectare; wettable powder added dropwise on water surface; 21st day after treatment
In short: as §1

Amaranthus viridis L. [4] = test: Herbicidal effects in upland field soil treatment (Test Example 2); conditions: 1000 g active ingredient per hectare, 21st day after treatment, criteria of Table 138
In short: (§2)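 Soil-applied before emergence at 1000 g a.i./ha as water-diluted wettable powder; greenhouse-grown plants rated for herbicidal damage 21 days post-treatment.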

[5] = tested on: Abutilon theophrasti medicus; test: as above; conditions: 1000 g active ingredient per hectare, 21st day after treatment, criteria of Table 138
In short: as §2

[6] = tested on: Echinochloa crus-galli (L.) P. Beauv. var. crus-galli; test: Herbicidal effects in upland field foliar treatment (Test Example 3); conditions: criteria of Table 138; for herbicidal effects on Echinochloa crus-galli (L.) P. Beauv. var. crus-galli: 1000 g of the active ingredient per hectare, 14th day after the treatment, wettable powder
In short: (§3)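 Post-emergence foliar treatment: two-week-old seedlings from upland field soil received 1000 g a.i./ha (wettable powder, 1000 L water/ha), then returned to the greenhouse for scoring 14 days later.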

Amaranthus viridis L. [7] = test: as above; conditions: criteria of Table 138; for herbicidal effects on Amaranthus viridis L.: 1000 g of the active ingredient per hectare, 14th day after the treatment, wettable powder
In short: as §3

[8] = tested on: Abutilon theophrasti medicus; test: as above; conditions: criteria of Table 138; for herbicidal effects on Abutilon theophrasti medicus: 1000 g of the active ingredient per hectare, 14th day after the treatment, wettable powder
In short: as §3

[9] = 1000 g active ingredient per hectare, 14th day after treatment

| Structure (SMILES) | Herbicidal effects index, Monochoria vaginalis (Burm. f.) Presl var. plantaginea (Roxb.) Solms-Laub. [1] | Herbicidal effects index, Echinochloa oryzicola Vasing [2] | Herbicidal effects index, Scirpus juncoides Roxb. var. ohwianus. T. Koyama [3] | herbicidal effect (index) on Amaranthus viridis L. (Amaranthus viridis L. [4]) | herbicidal effect (index) on Abutilon theophrasti medicus [5] | herbicidal effect (index) on Echinochloa crus-galli (L.) P. Beauv. var. crus-galli [6, 9] | herbicidal effect (index) on Amaranthus viridis L. (Amaranthus viridis L. [7]; [9]) | herbicidal effect (index) on Abutilon theophrasti medicus [8, 9] | herbicidal effects on Echinochloa crus-galli (L.) P. Beauv. var. crus-galli [6] | herbicidal effects on Amaranthus viridis L. (Amaranthus viridis L. [7]) | herbicidal effects on Abutilon theophrasti medicus [8] |
| --- | --- | --- | --- | --- | --- | --- | --- | --- | --- | --- | --- |
| O=C1CCCC(O)=C1C(=O)c1nc2ccccc2n(-c2ccc(Cl)cc2)c1=O [II-13] | 5 | 5 | 5 | 5 | 5 | 5 | 5 | 5 |  |  |  |
| O=C(C1=C(O)C2CCC(C2)C1=O)c1nc2ccccc2n(-c2ccc(Cl)cc2)c1=O (stereo not drawn) [II-14] | 5 | 5 | 5 | 5 | 5 |  |  |  | 5 | 5 | 4 |
| CC1(C)C(=O)C(C(=O)c2nc3ccccc3n(-c3ccc(Cl)cc3)c2=O)=C(O)C(C)(C)C1=O [II-15] | 5 | 5 | 5 | 5 | 5 |  |  |  | 5 | 5 | 5 |
| Cc1cccc(-n2c(=O)c(C(=O)C3=C(O)CCCC3=O)nc3ccccc32)c1 [II-20] | 5 | 5 | 5 | 5 | 5 |  |  |  | 5 | 5 | 5 |
| Cc1ccc(-n2c(=O)c(C(=O)C3=C(O)CCCC3=O)nc3ccccc32)cc1 [II-21] | 5 | 5 | 5 | 5 | 5 |  |  |  | 5 | 5 | 5 |
| CCc1cccc(-n2c(=O)c(C(=O)C3=C(O)CCCC3=O)nc3ccccc32)c1 [II-23] | 5 | 5 | 5 | 5 | 5 |  |  |  | 5 | 5 | 5 |
| CCc1ccc(-n2c(=O)c(C(=O)C3=C(O)CCCC3=O)nc3ccccc32)cc1 [II-24] | 5 | 5 | 5 | 5 | 5 |  |  |  | 5 | 5 | 4 |
| O=C1CCCC(O)=C1C(=O)c1nc2ccccc2n(-c2ccc(C3CC3)cc2)c1=O [II-33] | 5 | 5 | 5 | 5 | 4 |  |  |  | 5 | 5 | 5 |
| O=C1CCCC(O)=C1C(=O)c1nc2ccccc2n(-c2cccc(C(F)(F)F)c2)c1=O [II-39] | 5 | 5 | 5 | 5 | 5 |  |  |  | 5 | 5 | 5 |
| O=C1CCCC(O)=C1C(=O)c1nc2ccccc2n(-c2ccc(C(F)(F)F)cc2)c1=O [II-44] | 5 | 5 | 5 | 5 | 5 |  |  |  | 5 | 5 | 5 |
| COc1ccccc1-n1c(=O)c(C(=O)C2=C(O)CCCC2=O)nc2ccccc21 [II-52] | 5 | 5 | 5 | 5 | 5 |  |  |  | 5 | 5 | 5 |
| COc1cccc(-n2c(=O)c(C(=O)C3=C(O)CCCC3=O)nc3ccccc32)c1 [II-57] | 5 | 5 | 5 | 5 | 5 |  |  |  | 5 | 5 | 5 |
| COc1ccc(-n2c(=O)c(C(=O)C3=C(O)CCCC3=O)nc3ccccc32)cc1 [II-62] | 5 | 5 | 5 | 5 | 5 |  |  |  | 4 | 5 | 5 |
| COc1ccc(-n2c(=O)c(C(=O)C3=C(O)C(C)(C)CCC3=O)nc3ccccc32)cc1 [II-63] | 5 | 5 | 5 | 5 | 5 |  |  |  | 5 | 5 | 4 |
| COc1ccc(-n2c(=O)c(C(=O)C3=C(O)CC(C)(C)CC3=O)nc3ccccc32)cc1 [II-64] | 5 | 5 | 4 | 5 | 4 |  |  |  | 5 | 5 | 5 |
| CCOc1cccc(-n2c(=O)c(C(=O)C3=C(O)CCCC3=O)nc3ccccc32)c1 [II-68] | 5 | 5 | 5 | 5 | 5 |  |  |  | 5 | 5 | 5 |
| CCOc1ccc(-n2c(=O)c(C(=O)C3=C(O)CCCC3=O)nc3ccccc32)cc1 [II-69] | 5 | 5 | 5 | 5 | 4 |  |  |  | 5 | 5 | 5 |
| CC(C)Oc1ccc(-n2c(=O)c(C(=O)C3=C(O)CCCC3=O)nc3ccccc32)cc1 [II-75] | 5 | 5 | 5 | 5 | 4 |  |  |  | 5 | 5 | 4 |
